ChEMBL document CHEMBL4376889, “Discovery of a Brain-Penetrant ATP-Competitive Inhibitor of the Mechanistic Target of Rapamycin (mTOR) for CNS Disorders” (J Med Chem, 2020)
The source made the active and inactive calls. The rule behind the calls is not given here.

Tests used:
[1] = AUC (0 to t) in C57BL/6 mouse at 1 mg/kg, iv by HPLC analysis; assay type: ADME, organism-based; settings: in vivo
[2] = Half life in C57BL/6 mouse at 1 mg/kg, iv or 5 mg/kg, po by HPLC analysis; assay type: ADME, organism-based; settings: in vivo
[3] = MRT (0 to t) in Sprague-Dawley rat at 1 mg/kg, iv or 3 mg/kg, po by HPLC analysis; assay type: ADME, organism-based; settings: in vivo
[4] = Protein binding in Sprague-Dawley rat brain homogenate at 5 uM incubated for 4 hrs by LC-MS/MS analysis; assay type: ADME, tissue-based; settings: read-out: PB (converted)
[5] = target: Serine/threonine-protein kinase mTOR (Rattus norvegicus, UniProt P42346, L1460P); assay: Inhibition of mTOR L1460P mutant in rat primary cortical neuron assessed as reduction in PS6 phosphorylation incubated for 4 hrs by Western blot analysis (reference value: 19 nM)
[6] = Drug uptake in C57BL/6J mouse brain at 10 mg/kg, po incubated for 3 hrs by LC-MS/MS analysis; assay type: ADME, organism-based; settings: read-out: Drug uptake
[7] = target: 1-phosphatidylinositol 3-phosphate 5-kinase (Homo sapiens) (UniProt Q9Y2I7); assay: Inhibition of wild-type human partial length PIKFYVE (F1512 to C2098 residues) expressed in mammalian expression system at 10000 nM by Kinomescan method
[8] = Selectivity index, ratio of IC50 for DNAPK (unknown origin) to IC50 for inhibition of mTOR in mouse MEF cells harboring TSC1 deletion mutant; assay type: cell-based
[9] = target: Serine/threonine-protein kinase mTOR (Mus musculus, UniProt Q9JLN9); assay: Inhibition of mTOR in mouse MEF cells harboring TSC1 deletion mutant assessed as reduction in PS6 phosphorylation incuabted for 2 hrs alexa fluor 594 and Hoechst staining based fluorescence assay; assay type: cell-based
[10] = Ratio of drug concentration in brain to plasma in Sprague-Dawley rat at 3 mg/kg, po incubated for 1 hr by LC-MS/MS analysis; assay type: ADME, organism-based; settings: read-out: BPR
[11] = Stability in rat liver microsomes assessed as intrinsic clearance at 1 uM incubated for 30 mins by LC-MS/MS analysis; assay type: ADME, Microsome; settings: read-out: CLH
[12] = Oral bioavailability in C57BL/6 mouse at 5 mg/kg by HPLC analysis; assay type: ADME, organism-based; settings: in vivo
[13] = Drug uptake in C57BL/6J mouse plasma at 1 mg/kg, po incubated for 3 hrs by LC-MS/MS analysis; assay type: ADME, organism-based
Cortical neurone [14] = assay: Inhibition of oversizing of mouse primary cortical neuron harboring TSC1 deletion mutant at 200 nM incubated for 7 days by immunofluorescence assay; assay type: functional, cell-based; settings: 168 h
[15] = target: Serine/threonine-protein kinase mTOR (Rattus norvegicus, UniProt P42346, C1483Y); assay: Inhibition of mTOR C1483Y mutant in rat primary cortical neuron assessed as reduction in PS6 phosphorylation incubated for 4 hrs by Western blot analysis (reference value: 19 nM)
[16] = Ratio of drug concentration in brain to plasma in C57BL/6J mouse at 1 mg/kg, po incubated for 3 hrs by LC-MS/MS analysis; assay type: ADME, organism-based; settings: read-out: BPR
[17] = Selectivity index, ratio of IC50 for PDE4D (unknown origin) to IC50 for inhibition of mTOR in mouse MEF cells harboring TSC1 deletion mutant; assay type: cell-based
[18] = Half life in Sprague-Dawley rat at 1 mg/kg, iv or 3 mg/kg, po by HPLC analysis; assay type: ADME, organism-based; settings: in vivo
[19] = target: Serine/threonine-protein kinase mTOR (Rattus norvegicus, UniProt P42346, S2215Y); assay: Inhibition of mTOR S2215Y mutant in rat primary cortical neuron assessed as reduction in PS6 phosphorylation incubated for 4 hrs by Western blot analysis (reference value: 19 nM)
[20] = Clearance in C57BL/6 mouse at 1 mg/kg, iv or 5 mg/kg, po by HPLC analysis; assay type: ADME, organism-based; settings: in vivo
[21] = Cmax in C57BL/6 mouse at 1 mg/kg, iv or 5 mg/kg, po by HPLC analysis; assay type: ADME, organism-based; settings: in vivo
[22] = Tmax in C57BL/6 mouse at 1 mg/kg, iv or 5 mg/kg, po by HPLC analysis; assay type: ADME, organism-based; settings: in vivo
[23] = target: Phosphatidylinositol 4,5-bisphosphate 3-kinase catalytic subunit alpha isoform (Homo sapiens, UniProt P42336); assay: Inhibition of PI3Kalpha (unknown origin)
[24] = Cmax in Sprague-Dawley rat at 1 mg/kg, iv or 3 mg/kg, po by HPLC analysis; assay type: ADME, organism-based; settings: in vivo
[25] = AUC (0 to t) in Sprague-Dawley rat at 3 mg/kg, po by HPLC analysis; assay type: ADME, organism-based; settings: in vivo
Cortical neurone [26] = assay: Inhibition of overgrowth of mouse primary cortical neuron harboring TSC1 deletion mutant at 200 nM incubated for 7 days by immunofluorescence assay; assay type: functional, cell-based
[27] = Protein binding in Sprague-Dawley rat plasma at 5 uM incubated for 4 hrs by LC-MS/MS analysis; assay type: ADME, cell-free; settings: read-out: PPB (converted)
[28] = target: Serine/threonine-protein kinase mTOR (Mus musculus) (UniProt Q9JLN9); assay: Inhibition of mTOR in mouse primary cortical neuron harboring TSC1 deletion mutant assessed as reduction in PS6 phosphorylation incubated for 4 hrs by Western blot analysis
[29] = MRT (0 to t) in C57BL/6 mouse at 1 mg/kg, iv or 5 mg/kg, po by HPLC analysis; assay type: ADME, organism-based; settings: in vivo
[30] = Ratio of drug concentration in brain to plasma in C57BL/6 mouse at 1 mg/kg, iv incubated for 7 hrs by LC-MS/MS analysis; assay type: ADME, organism-based; settings: read-out: BPR
[31] = Drug uptake in C57BL/6J mouse plasma at 3 mg/kg, po incubated for 3 hrs by LC-MS/MS analysis; assay type: ADME, organism-based
[32] = target: Myosin light chain kinase, smooth muscle (Homo sapiens) (UniProt Q15746); assay: Inhibition of wild-type human […] MYLK (M854 to E1845 residues) expressed in mammalian expression system at 10000 nM by Kinomescan method
[33] = target: DNA-dependent protein kinase catalytic subunit (Homo sapiens, UniProt P78527); assay: Inhibition of DNAPK (unknown origin)
[34] = Ratio of drug concentration in brain to plasma in C57BL/6J mouse at 10 mg/kg, po incubated for 3 hrs by LC-MS/MS analysis; assay type: ADME, organism-based; settings: read-out: BPR
Cytochrome P450 2D6 = Cytochrome P450 2D6 (Homo sapiens, UniProt P10635); assay: Inhibition of CYP2D6 (unknown origin); assay type: ADME
Mus musculus = assay: In vivo inhibition of mTOR pathway in C57BL/6J mouse assessed as reduction in mTORC1/mTORC2 complex by measuring PS6 phosphorylation level at 1 to 10 mg/kg, po measured after 24 hrs by Western blot analysis; assay type: functional, organism-based

Myosin light chain kinase, smooth muscle (Homo sapiens), sequence (Q15746 whole entry, the tested form may be a part): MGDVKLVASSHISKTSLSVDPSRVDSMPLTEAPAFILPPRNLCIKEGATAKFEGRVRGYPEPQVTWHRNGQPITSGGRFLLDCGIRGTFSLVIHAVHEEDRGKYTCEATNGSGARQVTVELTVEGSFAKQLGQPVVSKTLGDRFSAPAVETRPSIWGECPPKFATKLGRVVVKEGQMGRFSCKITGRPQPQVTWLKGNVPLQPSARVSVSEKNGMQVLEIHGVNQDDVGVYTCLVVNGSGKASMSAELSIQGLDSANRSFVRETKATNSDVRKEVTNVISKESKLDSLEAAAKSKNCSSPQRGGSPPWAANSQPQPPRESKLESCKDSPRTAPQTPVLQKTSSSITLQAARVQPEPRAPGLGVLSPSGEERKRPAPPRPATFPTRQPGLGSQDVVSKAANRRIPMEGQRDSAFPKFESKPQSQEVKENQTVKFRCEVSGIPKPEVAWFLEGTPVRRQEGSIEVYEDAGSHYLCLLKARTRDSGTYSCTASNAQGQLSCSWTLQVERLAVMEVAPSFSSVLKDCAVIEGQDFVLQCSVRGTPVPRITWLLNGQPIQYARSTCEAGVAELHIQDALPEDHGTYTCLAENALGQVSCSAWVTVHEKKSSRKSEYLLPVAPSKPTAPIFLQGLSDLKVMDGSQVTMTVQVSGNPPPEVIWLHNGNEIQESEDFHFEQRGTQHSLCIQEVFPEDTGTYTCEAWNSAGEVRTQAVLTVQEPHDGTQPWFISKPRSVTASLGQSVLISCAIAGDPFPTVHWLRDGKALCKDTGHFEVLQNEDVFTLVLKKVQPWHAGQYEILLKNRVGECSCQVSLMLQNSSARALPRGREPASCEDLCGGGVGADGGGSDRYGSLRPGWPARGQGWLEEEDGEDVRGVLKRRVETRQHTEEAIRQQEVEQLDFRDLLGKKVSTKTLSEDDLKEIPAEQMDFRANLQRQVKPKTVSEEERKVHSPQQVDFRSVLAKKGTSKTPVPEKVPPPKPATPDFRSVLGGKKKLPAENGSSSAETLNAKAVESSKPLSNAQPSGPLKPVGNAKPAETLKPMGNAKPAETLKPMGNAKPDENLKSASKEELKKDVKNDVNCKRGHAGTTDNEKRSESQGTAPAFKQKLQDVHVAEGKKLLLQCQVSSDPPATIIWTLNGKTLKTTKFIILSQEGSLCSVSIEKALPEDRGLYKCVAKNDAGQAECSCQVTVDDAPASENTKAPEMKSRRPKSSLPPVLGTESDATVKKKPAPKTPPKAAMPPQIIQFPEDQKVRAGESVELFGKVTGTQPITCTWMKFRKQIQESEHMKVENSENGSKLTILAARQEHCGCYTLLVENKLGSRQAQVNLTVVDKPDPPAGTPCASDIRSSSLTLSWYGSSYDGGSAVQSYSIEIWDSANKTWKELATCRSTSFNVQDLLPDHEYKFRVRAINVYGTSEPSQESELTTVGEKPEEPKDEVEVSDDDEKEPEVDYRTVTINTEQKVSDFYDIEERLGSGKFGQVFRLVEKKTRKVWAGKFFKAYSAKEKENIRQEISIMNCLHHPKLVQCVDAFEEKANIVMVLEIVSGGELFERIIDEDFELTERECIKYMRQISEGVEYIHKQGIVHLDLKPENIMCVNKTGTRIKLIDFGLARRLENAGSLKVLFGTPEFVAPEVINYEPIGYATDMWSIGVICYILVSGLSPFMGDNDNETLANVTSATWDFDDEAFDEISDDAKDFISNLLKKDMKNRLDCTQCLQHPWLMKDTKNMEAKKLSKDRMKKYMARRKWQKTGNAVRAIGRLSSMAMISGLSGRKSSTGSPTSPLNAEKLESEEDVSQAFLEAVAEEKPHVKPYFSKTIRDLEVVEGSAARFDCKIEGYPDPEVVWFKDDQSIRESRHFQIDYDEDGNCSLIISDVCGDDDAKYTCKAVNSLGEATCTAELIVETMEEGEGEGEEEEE
1-phosphatidylinositol 3-phosphate 5-kinase (Homo sapiens), sequence (Q9Y2I7 whole entry, the tested form may be a part): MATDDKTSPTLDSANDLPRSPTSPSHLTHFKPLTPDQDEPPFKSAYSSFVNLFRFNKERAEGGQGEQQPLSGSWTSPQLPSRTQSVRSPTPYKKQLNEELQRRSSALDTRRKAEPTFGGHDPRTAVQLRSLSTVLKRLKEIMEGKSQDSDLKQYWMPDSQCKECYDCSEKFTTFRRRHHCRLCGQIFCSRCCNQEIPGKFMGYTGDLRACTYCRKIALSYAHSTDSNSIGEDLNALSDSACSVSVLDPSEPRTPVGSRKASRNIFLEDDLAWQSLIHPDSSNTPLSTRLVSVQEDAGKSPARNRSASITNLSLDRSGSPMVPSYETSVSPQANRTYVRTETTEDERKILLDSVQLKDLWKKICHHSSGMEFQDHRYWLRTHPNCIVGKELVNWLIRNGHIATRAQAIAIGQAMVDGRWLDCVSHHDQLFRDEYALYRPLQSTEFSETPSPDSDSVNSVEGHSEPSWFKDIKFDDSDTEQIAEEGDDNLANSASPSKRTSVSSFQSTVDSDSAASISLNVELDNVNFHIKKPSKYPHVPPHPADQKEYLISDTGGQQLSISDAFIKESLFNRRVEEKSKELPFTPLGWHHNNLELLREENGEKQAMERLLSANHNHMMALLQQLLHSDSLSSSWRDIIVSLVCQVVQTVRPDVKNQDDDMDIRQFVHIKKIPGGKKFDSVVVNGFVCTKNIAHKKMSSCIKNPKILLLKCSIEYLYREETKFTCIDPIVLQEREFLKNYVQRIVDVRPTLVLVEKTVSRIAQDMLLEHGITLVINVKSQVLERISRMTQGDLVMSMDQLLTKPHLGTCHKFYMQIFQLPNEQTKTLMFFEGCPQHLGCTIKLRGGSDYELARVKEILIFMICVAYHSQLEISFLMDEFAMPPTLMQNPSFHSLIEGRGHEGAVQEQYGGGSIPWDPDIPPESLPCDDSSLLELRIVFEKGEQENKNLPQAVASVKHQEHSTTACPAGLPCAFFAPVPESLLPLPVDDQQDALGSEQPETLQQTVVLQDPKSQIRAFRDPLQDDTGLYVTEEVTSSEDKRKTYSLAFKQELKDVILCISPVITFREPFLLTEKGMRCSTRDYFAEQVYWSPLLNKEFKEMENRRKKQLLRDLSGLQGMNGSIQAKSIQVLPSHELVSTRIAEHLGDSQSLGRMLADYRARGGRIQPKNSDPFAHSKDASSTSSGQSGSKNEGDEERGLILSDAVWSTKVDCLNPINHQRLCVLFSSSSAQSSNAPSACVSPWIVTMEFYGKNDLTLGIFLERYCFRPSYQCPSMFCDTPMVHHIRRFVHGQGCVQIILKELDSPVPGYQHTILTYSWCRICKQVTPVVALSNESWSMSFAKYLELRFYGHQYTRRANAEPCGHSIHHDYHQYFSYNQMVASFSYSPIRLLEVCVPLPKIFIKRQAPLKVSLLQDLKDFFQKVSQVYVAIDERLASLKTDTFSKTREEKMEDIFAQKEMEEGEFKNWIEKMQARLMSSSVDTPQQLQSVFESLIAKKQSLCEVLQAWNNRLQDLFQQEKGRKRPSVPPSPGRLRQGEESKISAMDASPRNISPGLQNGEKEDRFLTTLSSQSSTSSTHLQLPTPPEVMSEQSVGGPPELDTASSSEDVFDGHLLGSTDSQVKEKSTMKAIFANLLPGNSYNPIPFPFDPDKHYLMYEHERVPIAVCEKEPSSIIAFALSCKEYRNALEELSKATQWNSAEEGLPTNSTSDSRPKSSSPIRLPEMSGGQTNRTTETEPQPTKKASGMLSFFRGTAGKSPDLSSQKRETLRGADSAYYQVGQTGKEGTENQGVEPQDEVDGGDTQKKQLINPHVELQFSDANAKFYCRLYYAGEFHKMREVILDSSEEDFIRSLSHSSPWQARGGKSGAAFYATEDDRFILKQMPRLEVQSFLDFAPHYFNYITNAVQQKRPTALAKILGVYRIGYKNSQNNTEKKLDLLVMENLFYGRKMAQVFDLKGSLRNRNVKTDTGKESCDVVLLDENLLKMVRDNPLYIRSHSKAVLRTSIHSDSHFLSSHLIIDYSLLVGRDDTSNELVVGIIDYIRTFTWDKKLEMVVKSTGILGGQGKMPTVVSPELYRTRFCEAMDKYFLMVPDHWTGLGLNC
Phosphatidylinositol 4,5-bisphosphate 3-kinase catalytic subunit alpha isoform, sequence (P42336 whole entry, canonical isoform): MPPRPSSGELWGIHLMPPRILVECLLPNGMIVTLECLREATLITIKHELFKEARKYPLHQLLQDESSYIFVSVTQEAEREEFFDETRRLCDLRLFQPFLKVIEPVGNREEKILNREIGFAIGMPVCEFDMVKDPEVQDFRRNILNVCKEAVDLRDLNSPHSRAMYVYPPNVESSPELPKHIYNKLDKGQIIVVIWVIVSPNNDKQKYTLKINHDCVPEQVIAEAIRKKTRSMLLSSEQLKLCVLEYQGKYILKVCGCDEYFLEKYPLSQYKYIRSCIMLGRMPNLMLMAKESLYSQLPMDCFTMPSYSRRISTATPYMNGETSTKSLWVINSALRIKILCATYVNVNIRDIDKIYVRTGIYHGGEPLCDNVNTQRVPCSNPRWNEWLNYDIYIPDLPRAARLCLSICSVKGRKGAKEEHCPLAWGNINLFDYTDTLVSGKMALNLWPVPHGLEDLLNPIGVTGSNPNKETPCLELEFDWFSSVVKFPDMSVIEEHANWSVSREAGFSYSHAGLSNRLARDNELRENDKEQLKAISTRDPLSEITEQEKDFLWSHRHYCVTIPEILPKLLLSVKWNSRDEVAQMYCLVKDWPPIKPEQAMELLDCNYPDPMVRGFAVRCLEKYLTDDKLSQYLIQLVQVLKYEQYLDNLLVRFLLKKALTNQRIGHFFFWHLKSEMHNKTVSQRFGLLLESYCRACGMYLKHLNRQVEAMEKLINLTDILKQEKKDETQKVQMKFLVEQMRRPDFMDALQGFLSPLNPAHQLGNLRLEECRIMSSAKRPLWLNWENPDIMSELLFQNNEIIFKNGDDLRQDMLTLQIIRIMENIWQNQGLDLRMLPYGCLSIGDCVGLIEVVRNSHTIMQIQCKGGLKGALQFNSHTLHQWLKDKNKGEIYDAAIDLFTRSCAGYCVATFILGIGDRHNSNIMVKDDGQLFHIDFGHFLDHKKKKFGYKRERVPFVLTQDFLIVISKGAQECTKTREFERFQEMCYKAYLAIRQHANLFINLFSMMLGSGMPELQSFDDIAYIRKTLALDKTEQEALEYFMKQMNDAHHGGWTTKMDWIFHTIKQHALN

C[C@@H]1COCCN1c1nc(N2CCOC[C@@H]2C)nc2sc(-c3cc[nH]n3)nc12
AUC(0-t) [1]: 4.41 µM·h | half-life [2]: 4.3 h | MRT last [3]: 4.3 h | fraction unbound at 4 h, 5 µM [4]: 0.004 | IC50 [5]: 11 nM | concentration at 3 h [6]: 5820 nM | inhibition [7]: Active | Ratio IC50 [8]: 230 | IC50 [9]: 5.6 nM | Kp at 1 h [10]: 4 | microsomal CLint at 1 µM [11]: 42 µL/min/mg | bioavailability [12]: 61% | concentration at 3 h [13]: 826 nM | IC50 (Cortical neurone [14]): 30 nM | IC50 [15]: 37 nM | Kp at 3 h [16]: 1.1 | Ratio IC50 [17]: 38 | half-life [18]: 3.7 h | IC50 [19]: 14 nM | clearance [20]: 6.5 mL/min/kg | Cmax [21]: 2700 nM | Tmax [22]: 1.3 h | IC50 [23]: 2200 nM | Cmax [24]: 1120 nM | AUC(0-t) [25]: 10.5 µM·h | inhibition (Cortical neurone [26]): Active | fraction unbound at 4 h, 5 µM [27]: 0.012 | inhibition [28]: Dose-dependent effect | MRT last [29]: 2.6 h | Kp at 7 h [30]: 1.2 | concentration at 3 h [31]: 2210 nM | inhibition [32]: Active | IC50 [33]: 1290 nM | Kp at 3 h [34]: 1.3 | IC50 (Cytochrome P450 2D6): > 50000 nM | inhibition (Mus musculus): inactive
